Entries after “also recorded” stand apart in the source; their conditions may differ.
Assays:
[1] = tested on: murine HSCs (LKS CD150+CD48−); assay: Mitochondrial membrane potential (TMRM staining, flow cytometry) of cultured murine HSCs; type: cell-based, mouse; settings: compared to the Basal condition; day 3 of culture; NR 500 uM, Vit B12 (MC) 100 uM
Description: Flow cytometry analysis was performed on freshly isolated bone marrow (BM) from C57BI6 mice. BM was extracted from crushed femora and tibia. Cell suspension was filtered through a 70 μm cell strainer and erythroid cells were eliminated by incubation with red blood cell lysis buffer (eBioscences). Isolation and stains were performed in ice-cold PBS 1 mM EDTA. Lineage positive cells were then removed with a magnetic lineage depletion kit (BD biosciences). Cell suspensions were then stained with specific antibodies for the stem cell compartment and sorted by FACS (BD FACS Aria III) into 1.5 ml Eppendorf tubes.
The following antibodies were used in this study: rat mAbs against cKit (2B8), Sca1 (D7), CD150 (TC-15-12F12.2), CD48 (HM48-1). The antibodies were purchased from Biolegend, eBiosciences and BD. A mixture of biotinylated mAbs against CD3, CD11b, CD45R/B220, Ly-6G, Ly-6C and TER-119 was used as lineage marker (“lineage cocktail”) and was purchased from BD. DAPI or propidium iodine (PI) staining was used for live/dead cell discrimination.
Murine HSCs were sorted into 1.5 ml Eppendorf tubes and were cultured in Stemline II (SIGMA) supplemented with 100 ng/ml SCF (R&D) and 2 ng/ml Flt3 (R&D). This was defined as the basal condition. Different concentrations as indicated of UroA, NR and Vit B12 (MC) were added in specific wells. NR was supplemented every 24 hours.
Mouse HSCs already in culture were incubated at 37° C. for 1 hour with 200 nM tetramethylrhodamine methyl ester (TMRM; Invitrogen) and 100 nM Mitotracker green. Cells were then washed with FACS buffer and analysed by flow cytometry on a BD LSR II.
Freshly FACS sorted mHSCs (LKS CD150+CD48−) were cultured in basal media (Stemline+SCF+FLT3L) supplemented with UroA, NR and MC in specific wells (as indicated). Cells were harvested at day 3 and stained with tetramethylrhodamine methyl ester (TMRM; to measure mitochondria membrane potential) and Mitotracker (to measure mitochondrial mass) and analysed by flow cytometry.

human HSCs = settings: culture media supplemented with nicotinamide riboside, primary and secondary recipient humanised mice; cited from earlier work

C/C1=C2/[N-][C@H]([C@H](CC(N)=O)[C@@]2(C)CCC(=O)NC[C@@H](C)OP(=O)([O-])O[C@H]2[C@@H](O)[C@@H](n3cnc4cc(C)c(C)cc43)O[C@@H]2CO)[C@]2(C)N=C(/C(C)=C3N=C(/C=C4N=C1[C@@H](CCC(N)=O)C\4(C)C)[C@@H](CCC(N)=O)[C@]\3(C)CC(N)=O)[C@@H](CCC(N)=O)[C@]2(C)CC(N)=O.[CH3-].[Co] [MC, methylcobalamine]
MFI TMRM (Mean Fluorescence Intensity) [1]: significantly decreased; also recorded: decreases | proportion of cells in the TMRM low gate [1]: significantly increased; also recorded: increases

NC(=O)c1ccc[n+]([C@@H]2O[C@H](CO)[C@@H](O)[C@H]2O)c1 [NR, Nicotinamide riboside]
MFI TMRM (Mean Fluorescence Intensity) [1]: significantly decreased; also recorded: decreases | proportion of cells in the TMRM low gate [1]: significantly increased; also recorded: increases | levels of engraftment (human HSCs): significantly higher
